# Test results taken from the supplement of paper PMC11208160.
# Assay: recombinant UMI read abundance after kanamycin selection (control-corrected) (log10(CPM+1)); higher = more efficient recombination; extreme values may be limits of the assay; sequences stand for … in AGTGCAGAGAAAATCGGCCAGTTTTCTCTGCCTGCAGTCCGCATGCCGTGGGACCCCTTGGGTTCTAACCTGTTGCCTAGATTTATGCAGCGGACTGCCTTTCTCCCAAAGTGATAAACCGG…AGGTTGGTTTCACT; site = the 11-nt donor
# Procedure, shortened: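 For the IS621 bridge recombinase, a pooled Escherichia coli screen tested donor and donor-binding-loop pairs. Cells received the pair library together with a target plasmid encoding a fixed target and T7-inducible recombinase, then went onto IPTG (0.07 mM) plus kanamycin or unselected plates in duplicate. After PCR across the donor–target junction and sequencing, recombinant UMI counts were normalized to CPM, averaged, and scaled by control-derived factors. Each value is given as log10(CPM+1).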
row,Sequence,recombinant UMI read abundance (log10)
1,CGGTAGTCATGGACCGGTTTTCCCGGTAATCCGTATTTGTT (site CGGTAGTCTAA),3.15
2,CGGTATCCATGGACCGGTTTTCCCGGTAATCCGTATTTGCG (site CGGTATCCTCG),0.378
3,CGGTATCCATGGACCGGTTTTCCCGGTAATCCGTATTTGTC (site CGGAATCCTAA),0.00431
4,CGGTATCCATGGACCGGTTTTCCCGGTAATCCGTATTTGTC (site CGGTATCCTGA),0
5,CGGTCAGCATGGACCGGTTTTCCCGGTAATCCGTATTTGCT (site CGATCATCTAG),0
6,CGGTCAGCATGGACCGGTTTTCCCGGTAATCCGTATTTGCT (site CGGTCAGCTAG),1.12
7,CGGTCGACATGGACCGGTTTTCCCGGTAATCCGTATTTGGG (site CAGTCGACTCC),0.0262
8,CGGTCGACATGGACCGGTTTTCCCGGTAATCCGTATTTGGG (site CCGTCGACTCC),0.0265
9,CGGTCGACATGGACCGGTTTTCCCGGTAATCCGTATTTGGG (site CGGTCGACTCC),0.018
10,CGGTCGACATGGACCGGTTTTCCCGGTAATCCGTATTTGGG (site CTGTCGACTCC),0.0407
11,CGGTCGACATGGACCGGTTTTCCCGGTAATCCGTATTTGTT (site CGATCGACTAA),0.0167
12,CGGTCGACATGGACCGGTTTTCCCGGTAATCCGTATTTGTT (site CGCTCGACTAA),0.00476
13,CGGTCGACATGGACCGGTTTTCCCGGTAATCCGTATTTGTT (site CGGTCGACTAA),0.226
14,CGGTCGACATGGACCGGTTTTCCCGGTAATCCGTATTTGTT (site CGTTCGACTAA),0.00264
15,CGGTGGACATGGACCGGTTTTCCCGGTAATCCGTATTTGTC (site CGGTGGACTGA),2.27
16,CGGTTCCCATGGACCGGTTTTCCCGGTAATCCGTATTTGTG (site AGGTTCCCTCA),0.0113
17,CGGTTCCCATGGACCGGTTTTCCCGGTAATCCGTATTTGTG (site CGGTTCCCTCA),0.0387
18,CGGTTCCCATGGACCGGTTTTCCCGGTAATCCGTATTTGTG (site GGGTTCCCTCA),0.0355
19,CGGTTCCCATGGACCGGTTTTCCCGGTAATCCGTATTTGTG (site TGGTTCCCTCA),0.0119
20,CGGTTGGCATGGACCGGTTTTCCCGGTAATCCGTATTTGCT (site CGATTGGCTAG),0.3
21,CGGTTGGCATGGACCGGTTTTCCCGGTAATCCGTATTTGCT (site CGCTTGGCTAG),0.00834
22,CGGTTGGCATGGACCGGTTTTCCCGGTAATCCGTATTTGCT (site CGGTTGGCTAG),1.08
23,CGGTTGGCATGGACCGGTTTTCCCGGTAATCCGTATTTGCT (site CGTTTGGCTAG),0
24,CGTAAGCCATGGACCGGTTTTCCCGGTAATCCGTATTTGTT (site CGGAATCCTAA),0
25,CGTAAGCCATGGACCGGTTTTCCCGGTAATCCGTATTTGTT (site CGTAAGCCTAA),0.666

row,Sequence,recombinant UMI read abundance (log10)
1,CGTAATCCATGGACCGGTTTTCCCGGTAATCCGTATTTGTT (site CGAAATCCTAA),0.00285
2,CGTAATCCATGGACCGGTTTTCCCGGTAATCCGTATTTGTT (site CGCAATCCTAA),0
3,CGTAATCCATGGACCGGTTTTCCCGGTAATCCGTATTTGTT (site CGGAATCCTAA),0.00347
4,CGTAATCCATGGACCGGTTTTCCCGGTAATCCGTATTTGTT (site CGTAATCCTAA),0
5,CGTACATCATGGACCGGTTTTCCCGGTAATCCGTATTTGCT (site CGAACATCTAG),0.623
6,CGTACATCATGGACCGGTTTTCCCGGTAATCCGTATTTGCT (site CGATCATCTAG),0
7,CGTACATCATGGACCGGTTTTCCCGGTAATCCGTATTTGCT (site CGCACATCTAG),0
8,CGTACATCATGGACCGGTTTTCCCGGTAATCCGTATTTGCT (site CGGACATCTAG),0
9,CGTACATCATGGACCGGTTTTCCCGGTAATCCGTATTTGCT (site CGTACATCTAG),1.39
10,CGTACCACATGGACCGGTTTTCCCGGTAATCCGTATTTGAG (site CGTACCACTCT),1.06
11,CGTAGAACATGGACCGGTTTTCCCGGTAATCCGTATTTGCC (site CGTAGAACTGG),2.75
12,CGTATGGCATGGACCGGTTTTCCCGGTAATCCGTATTTGCT (site CGTATGGCTAG),0.895
13,CGTATGGCATGGACCGGTTTTCCCGGTAATCCGTATTTGCT (site CGTCTGGCTAG),0
14,CGTATGGCATGGACCGGTTTTCCCGGTAATCCGTATTTGCT (site CGTGTGGCTAG),0.0109
15,CGTATGGCATGGACCGGTTTTCCCGGTAATCCGTATTTGCT (site CGTTTGGCTAG),0
16,CGTCTATCATGGACCGGTTTTCCCGGTAATCCGTATTTGCC (site CGTCTATCTGG),2.64
17,CGTCTGACATGGACCGGTTTTCCCGGTAATCCGTATTTGAC (site CGTCTGACTGT),0.908
18,CGTCTGGCATGGACCGGTTTTCCCGGTAATCCGTATTTGCT (site CGTATGGCTAG),0
19,CGTCTGGCATGGACCGGTTTTCCCGGTAATCCGTATTTGCT (site CGTCTGGCTAG),0.46
20,CGTCTGGCATGGACCGGTTTTCCCGGTAATCCGTATTTGCT (site CGTGTGGCTAG),0.00552
21,CGTCTGGCATGGACCGGTTTTCCCGGTAATCCGTATTTGCT (site CGTTTGGCTAG),0
22,CGTCTTCCATGGACCGGTTTTCCCGGTAATCCGTATTTGTC (site CGTCTTCCTGA),1.19
23,CGTGAGACATGGACCGGTTTTCCCGGTAATCCGTATTTGAG (site CGTAAGACTCT),2.08
24,CGTGAGACATGGACCGGTTTTCCCGGTAATCCGTATTTGAG (site CGTCAGACTCT),0.00623
25,CGTGAGACATGGACCGGTTTTCCCGGTAATCCGTATTTGAG (site CGTGAGACTCT),2.08

row,Sequence,recombinant UMI read abundance (log10)
1,CGTGAGACATGGACCGGTTTTCCCGGTAATCCGTATTTGAG (site CGTTAGACTCT),0.167
2,CGTGCCTCATGGACCGGTTTTCCCGGTAATCCGTATTTGTC (site CGTGCCTCTGA),2.03
3,CGTGGAACATGGACCGGTTTTCCCGGTAATCCGTATTTGTC (site CGTGGAACTAA),0
4,CGTGGAACATGGACCGGTTTTCCCGGTAATCCGTATTTGTC (site CGTGGAACTCA),0.0117
5,CGTGGAACATGGACCGGTTTTCCCGGTAATCCGTATTTGTC (site CGTGGAACTGA),1.94
6,CGTGGAACATGGACCGGTTTTCCCGGTAATCCGTATTTGTC (site CGTGGAACTTA),0.519
7,CGTGGACCATGGACCGGTTTTCCCGGTAATCCGTATTTGTT (site CGTGGAACTAA),0.00973
8,CGTGGACCATGGACCGGTTTTCCCGGTAATCCGTATTTGTT (site CGTGGACCTAA),0.0211
9,CGTGGACCATGGACCGGTTTTCCCGGTAATCCGTATTTGTT (site CGTGGAGCTAA),0.0186
10,CGTGGACCATGGACCGGTTTTCCCGGTAATCCGTATTTGTT (site CGTGGATCTAA),0.722
11,CGTGTATCATGGACCGGTTTTCCCGGTAATCCGTATTTGAC (site CGTGTATCTGT),1.26
12,CGTGTATCATGGACCGGTTTTCCCGGTAATCCGTATTTGAC (site CTAGTATCTGT),0
13,CGTTAAGCATGGACCGGTTTTCCCGGTAATCCGTATTTGAA (site CGTTAAGCTTT),2
14,CGTTACACATGGACCGGTTTTCCCGGTAATCCGTATTTGAG (site CGTTAAACTCT),0.00268
15,CGTTACACATGGACCGGTTTTCCCGGTAATCCGTATTTGAG (site CGTTACACTCT),1.43
16,CGTTACACATGGACCGGTTTTCCCGGTAATCCGTATTTGAG (site CGTTAGACTCT),0.0129
17,CGTTACACATGGACCGGTTTTCCCGGTAATCCGTATTTGAG (site CGTTATACTCT),0.202
18,CGTTAGACATGGACCGGTTTTCCCGGTAATCCGTATTTGAC (site CGTTAGACTAT),0.0518
19,CGTTAGACATGGACCGGTTTTCCCGGTAATCCGTATTTGAC (site CGTTAGACTCT),0.0193
20,CGTTAGACATGGACCGGTTTTCCCGGTAATCCGTATTTGAC (site CGTTAGACTGT),1.58
21,CGTTAGACATGGACCGGTTTTCCCGGTAATCCGTATTTGAC (site CGTTAGACTTT),0.0068
22,CGTTAGACATGGACCGGTTTTCCCGGTAATCCGTATTTGAG (site AGTTAGACTCT),0.0858
23,CGTTAGACATGGACCGGTTTTCCCGGTAATCCGTATTTGAG (site CATTAGACTCT),0.498
24,CGTTAGACATGGACCGGTTTTCCCGGTAATCCGTATTTGAG (site CCTTAGACTCT),0.0362
25,CGTTAGACATGGACCGGTTTTCCCGGTAATCCGTATTTGAG (site CGATAGACTCT),0.838
